One data set has as its target T1, OATP1A2 (Homo sapiens, UniProt P46721).
T1 sequence (P46721 1-670): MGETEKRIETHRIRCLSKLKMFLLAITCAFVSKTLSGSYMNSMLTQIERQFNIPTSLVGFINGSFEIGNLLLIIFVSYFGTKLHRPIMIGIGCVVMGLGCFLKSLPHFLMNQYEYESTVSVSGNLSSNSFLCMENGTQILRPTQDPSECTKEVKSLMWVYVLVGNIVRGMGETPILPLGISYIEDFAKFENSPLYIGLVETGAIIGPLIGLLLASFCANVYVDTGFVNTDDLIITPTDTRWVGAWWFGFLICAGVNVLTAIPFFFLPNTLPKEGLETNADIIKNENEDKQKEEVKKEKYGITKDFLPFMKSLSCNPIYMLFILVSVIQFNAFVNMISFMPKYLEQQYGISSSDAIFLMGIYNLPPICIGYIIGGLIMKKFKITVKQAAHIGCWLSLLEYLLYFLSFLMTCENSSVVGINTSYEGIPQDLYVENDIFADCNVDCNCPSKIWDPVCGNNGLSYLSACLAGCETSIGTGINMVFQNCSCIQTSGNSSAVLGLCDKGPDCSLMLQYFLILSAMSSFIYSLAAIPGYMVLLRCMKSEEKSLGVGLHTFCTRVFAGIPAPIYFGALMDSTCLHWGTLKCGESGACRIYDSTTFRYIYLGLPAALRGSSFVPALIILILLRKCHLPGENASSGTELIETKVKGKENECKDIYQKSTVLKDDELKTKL
In words: OTA uptake in OATP1A2-overexpressing HEK293 cells (screen and kinetics). As for the experimental part: The following experiments were conducted at the University of Washington. Mock HEK293 cells and transporter-overexpressing HEK293 cells (i.e., OAT1–4, OCT2, MATE1/2K, OCTN1, OATP1A2), mock CHO cells, and OCTN2-overexpressing CHO cells were plated in 96 well plates coated with 0.05 mg/mL of poly-D-lysine in 50 μL DPBS at a density of 800,000 cells/mL and grown until reaching over 90% of confluence. […] For uptake experiments in MATE1- and MATE2-K-expressing HEK293 cells, the pH of the incubation buffer was adjusted to 8.0 to facilitate substrate uptake. For uptake experiments in OATP1A2-expressing and OAT4-expressing HEK293 cells, the pH of the incubation buffer was adjusted to 6.5 to mimic pH of the urinary filtrate, as these are apical transporters. The incubation buffer was kept at pH 7.4 for all other transporters. […] Uptake was quenched by removing the substrates/inhibitors and washing the cells 3 times with 200 μL of ice-cold HBSS++. […] The precipitated protein was allowed to dry and subsequently solubilized overnight in 1M NaOH, neutralized with 1 M HCl the next day, and measured by BCA assay.
(§1) All cellular-based assays were conducted in technical triplicate across three independent experiments. […] This cutoff was defined a priori. […] Jnet was then treated as the initial uptake rate, and Km and Vmax values were obtained by fitting the Michaelis–Menten equation to the substrate-concentration data as described above. Intrinsic clearance (CLint) was then calculated by the formula, CLint=Vmax/Km using Vmax and Km values as calculated above. […] At steady-state, the mass balance for intracellular concentrations assuming symmetric passive permeabilities (Papical = Pbasal, taken as Papp from mock assays) and apical efflux gives: Ccell= Cbasal/1+ ke/Pa where Cbasal is the concentration in the basal chamber and ke is the first-order elimination with respect to BCRP. Because the asymmetric efflux ratio ERa is defined as: ERa=1+ ke/Pa

A further data set deals with T2, human BCRP (Homo sapiens, UniProt Q9UNQ0).
T2 sequence (Q9UNQ0 1-655): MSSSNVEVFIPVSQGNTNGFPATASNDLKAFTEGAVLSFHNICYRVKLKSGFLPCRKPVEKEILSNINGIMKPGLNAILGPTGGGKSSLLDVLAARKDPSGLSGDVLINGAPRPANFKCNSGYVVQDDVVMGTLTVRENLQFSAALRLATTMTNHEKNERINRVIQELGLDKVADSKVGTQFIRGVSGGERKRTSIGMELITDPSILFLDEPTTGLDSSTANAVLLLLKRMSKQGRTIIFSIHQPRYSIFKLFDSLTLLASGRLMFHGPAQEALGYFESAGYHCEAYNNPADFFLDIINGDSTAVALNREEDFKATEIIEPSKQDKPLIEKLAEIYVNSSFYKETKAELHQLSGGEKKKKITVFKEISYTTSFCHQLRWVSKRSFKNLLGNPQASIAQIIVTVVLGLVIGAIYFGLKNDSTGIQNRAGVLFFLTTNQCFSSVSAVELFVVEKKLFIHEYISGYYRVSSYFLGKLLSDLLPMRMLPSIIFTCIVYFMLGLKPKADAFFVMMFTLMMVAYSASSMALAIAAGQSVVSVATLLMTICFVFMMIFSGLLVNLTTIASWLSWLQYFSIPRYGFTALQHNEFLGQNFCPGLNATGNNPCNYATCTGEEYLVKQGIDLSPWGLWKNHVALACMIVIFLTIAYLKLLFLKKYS
In words: Bidirectional transport of OTA in BCRP-expressing MDCK-II cells. The note with it: net B to A flux, 1.56 to 100 μM OTA. As for the experimental part:
as §1

The target of a further data set is T3, human MRP2 (Homo sapiens, UniProt Q92887).
T3 construct: purchased BioIVT; host or cells: Sf9 cell-derived membrane vesicles
T3 sequence (Q92887 whole entry): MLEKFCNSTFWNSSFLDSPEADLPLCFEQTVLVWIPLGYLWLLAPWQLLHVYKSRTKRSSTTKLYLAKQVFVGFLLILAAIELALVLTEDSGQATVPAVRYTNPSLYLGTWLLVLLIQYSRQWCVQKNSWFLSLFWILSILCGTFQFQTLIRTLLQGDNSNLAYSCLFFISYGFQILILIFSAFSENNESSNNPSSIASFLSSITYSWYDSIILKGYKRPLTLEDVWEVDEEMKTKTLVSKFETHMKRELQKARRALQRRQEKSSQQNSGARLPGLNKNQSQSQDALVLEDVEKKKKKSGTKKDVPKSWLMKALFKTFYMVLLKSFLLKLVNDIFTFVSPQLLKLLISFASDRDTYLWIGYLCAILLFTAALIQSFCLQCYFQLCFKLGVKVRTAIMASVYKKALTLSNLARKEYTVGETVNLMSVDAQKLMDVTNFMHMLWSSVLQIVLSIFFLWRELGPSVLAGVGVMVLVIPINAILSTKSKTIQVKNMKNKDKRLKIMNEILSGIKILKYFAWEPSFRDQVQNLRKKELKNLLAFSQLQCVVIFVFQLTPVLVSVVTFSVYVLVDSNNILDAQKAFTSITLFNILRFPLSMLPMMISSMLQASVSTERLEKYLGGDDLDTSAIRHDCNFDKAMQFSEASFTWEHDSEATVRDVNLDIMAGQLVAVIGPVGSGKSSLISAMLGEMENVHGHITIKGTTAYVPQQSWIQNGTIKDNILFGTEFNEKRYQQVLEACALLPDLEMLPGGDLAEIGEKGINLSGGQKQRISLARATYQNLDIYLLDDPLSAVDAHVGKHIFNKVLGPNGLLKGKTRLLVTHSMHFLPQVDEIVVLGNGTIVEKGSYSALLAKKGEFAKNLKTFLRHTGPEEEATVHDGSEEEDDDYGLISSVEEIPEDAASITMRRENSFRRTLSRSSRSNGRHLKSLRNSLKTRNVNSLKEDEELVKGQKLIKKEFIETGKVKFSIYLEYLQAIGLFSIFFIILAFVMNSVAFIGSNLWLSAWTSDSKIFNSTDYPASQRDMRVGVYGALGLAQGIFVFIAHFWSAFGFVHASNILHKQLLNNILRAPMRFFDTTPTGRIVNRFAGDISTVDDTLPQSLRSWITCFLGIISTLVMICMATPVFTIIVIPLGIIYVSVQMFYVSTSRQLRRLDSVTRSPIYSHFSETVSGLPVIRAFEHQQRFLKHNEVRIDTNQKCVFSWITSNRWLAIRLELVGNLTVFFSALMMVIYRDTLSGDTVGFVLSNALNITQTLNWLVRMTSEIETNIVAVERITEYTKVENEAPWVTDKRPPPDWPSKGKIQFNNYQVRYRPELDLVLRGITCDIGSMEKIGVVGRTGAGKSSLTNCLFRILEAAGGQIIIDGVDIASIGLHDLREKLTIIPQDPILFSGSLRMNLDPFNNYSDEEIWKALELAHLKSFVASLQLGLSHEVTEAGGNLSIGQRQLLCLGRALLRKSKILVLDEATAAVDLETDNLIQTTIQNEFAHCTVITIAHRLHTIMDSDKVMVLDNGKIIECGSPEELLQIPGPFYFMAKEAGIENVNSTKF
The data set is described as follows: OTA uptake in MRP2-expressing Sf9 membrane vesicles. To be noted: 10 μM OTA, 5 min. The format is in vitro ADME. As to the method: The following experiments were conducted at BioIVT.

The subject of a further data set is MRP2. To be noted: read-out: IC50, inhibition of MRP2-mediated p-aminohippurate efflux; cited from earlier work.

By Vmax is commonly meant the top rate of the reaction or transport when substrate is in excess. What is called Km is the concentration of substrate that gives half-maximal velocity. As usually defined, the IC50 is the concentration that inhibits the measured activity by half.

Take `C[C@@H]1Cc2c(Cl)cc(C(=O)N[C@@H](Cc3ccccc3)C(=O)O)c(O)c2C(=O)O1` [OTA, Ochratoxin A]: the Vmax at OATP1A2 (HEK293, 5 min, 37 °C, pH 6.5, mock-corrected) is 801.0 ± 133.9 pmol/mg/min. Besides, the microsomal CLint at OATP1A2 (human, other cell line, pH 6.5) is 21.6 ± 2.3 µL/min/mg. Also, the Km at 5 min on OATP1A2 (human, pH 6.5) stood at 37.3 ± 6.2 µM. Also, at human BCRP, the “apparent CLint estimated by the slope of the linearly fitted line” value is listed as 0.29 ± 0.03 µL/min/cm^2. In addition, on human MRP2, the “MRP2-mediated OTA transport” value is reported as “no MRP2-mediated OTA transport”. Moreover, in the data set on MRP2, the 50% inhibitory concentration (IC50) was 58 µM.

These data come from publication PMC12655426 (Pharmaceutics, 2025).
